Measurements as given in patent US11109593B2, “Isoxazolin-5-one derivative and herbicide containing same as active ingredient” (HOKKO CHEMICAL INDUSTRY CO., LTD., priority 2017, dated 2021).

Assays:
Assay type in all cases: in vivo
Echinochloa crus-galli [1] = assay: Test Example 1: herbicidal effect test by treatment of rice paddy soil (immediately after seeding); settings: 120 g/10a active ingredient, dry weight vs untreated area, 14 days after treatment
Outline: (§1)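 Paddy soil in pots with compound fertilizer, puddled; 30 seeds per species sown at 0–1 cm, flooded ~3 cm, greenhouse. Water-diluted emulsions dropped onto water immediately after seeding at 120 g active ingredient per 10 ares, duplicate. Herbicidal rate (%) from plant dry weight versus untreated, 14 days after treatment.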

Scirpus juncoides [2] = assay: as above; settings: 120 g/10a active ingredient, dry weight vs untreated area, 14 days after treatment
Outline: as §1

[3] = tested on: broad leaf weeds (Lindernia pyxidaria and Monochoria vaginalis); assay: as above; settings: 120 g/10a active ingredient, dry weight vs untreated area, 14 days after treatment
Outline: as §1

Echinochloa crus-galli [4] = assay: Test Example 2: herbicidal effect test by treatment during growing period in paddy rice cultivation (seven days after seeding); settings: 120 g/10a active ingredient, assessed 14 days after treatment, dry weight vs untreated area
Outline: (§2)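 Herbicidal rate = (1 − treated/untreated mean dry weight) × 100, scored 14 days after application, two replicates per rate. Treatment: diluted emulsion dropped onto paddy water seven days after sowing, 120 g active ingredient per 10 ares, in a glass greenhouse.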

Scirpus juncoides [5] = assay: as above; settings: 120 g/10a active ingredient, assessed 14 days after treatment, dry weight vs untreated area
Outline: as §2

[6] = tested on: broad leaf weeds (Lindernia pyxidaria and Monochoria vaginalis); assay: as above; settings: 120 g/10a active ingredient, assessed 14 days after treatment, dry weight vs untreated area
Outline: as §2

Amaranthus viridis [7] = assay: Test Example 3: herbicidal effect test by treatment of dry field farming soil (one day after seeding); settings: 120 g/10a active ingredient, evaluated 14 days after treatment
Outline: (§3)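 Seeds (20 each) mixed into top 1 cm of alluvium in pots, surface pressed. One day later, diluted emulsion sprayed onto soil, 100 L/10 a, 120 g a.i./10 a. Dry weight at 14 d vs untreated gave % herbicidal rate; n=2.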

Chenopodium album [8] = assay: as above; settings: 120 g/10a active ingredient, evaluated 14 days after treatment
Outline: as §3

Echinochloa crus-galli [9] = assay: as above; settings: 120 g/10a active ingredient, evaluated 14 days after treatment
Outline: as §3

southern crabgrass [10] = assay: as above; settings: 120 g/10a active ingredient, evaluated 14 days after treatment
Outline: as §3

Amaranthus viridis [11] = assay: Test Example 4: herbicidal effect test by treatment of leave and stem in dry field farming (seven days after seeding); settings: 120 g/10a active ingredient; emulsion sprayed seven days after seeding; evaluated 14 days after treatment
Outline: (§4)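 Duplicate pots were scored 14 days post-spray by dry weight, herbicidal rate = {1 − treated/untreated average dry weight} × 100. The water-diluted emulsion, equivalent to 120 g active ingredient per 10 ares in 100 L, was applied seven days after sowing 20 seeds each into the upper 1 cm of alluvial soil.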

Chenopodium album [12] = assay: as above; settings: 120 g/10a active ingredient; emulsion sprayed seven days after seeding; evaluated 14 days after treatment
Outline: as §4

Echinochloa crus-galli [13] = assay: as above; settings: 120 g/10a active ingredient; emulsion sprayed seven days after seeding; evaluated 14 days after treatment
Outline: as §4

southern crabgrass [14] = assay: as above; settings: 120 g/10a active ingredient; emulsion sprayed seven days after seeding; evaluated 14 days after treatment
Outline: as §4

| Structure (SMILES) | Herbicidal rate (%) Echinochloa crus-galli (Echinochloa crus-galli [1]) [%] | Herbicidal rate (%) Scirpus juncoides (Scirpus juncoides [2]) [%] | Herbicidal rate (%) Lindernia pyxidaria [3] [%] | Herbicidal rate (%) Monochoria vaginalis [3] [%] | Herbicidal rate (%) Echinochloa crus-galli (Echinochloa crus-galli [4]) [%] | Herbicidal rate (%) Scirpus juncoides (Scirpus juncoides [5]) [%] | Herbicidal rate (%) Lindernia pyxidaria [6] [%] | Herbicidal rate (%) Monochoria vaginalis [6] [%] | herbicidal rate, Amaranthus viridis (Amaranthus viridis [7]) [%] | herbicidal rate, Chenopodium album (Chenopodium album [8]) [%] | herbicidal rate, Echinochloa crus-galli (Echinochloa crus-galli [9]) [%] | herbicidal rate, southern crabgrass (southern crabgrass [10]) [%] | herbicidal effect (herbicidal rate), Amaranthus viridis (Amaranthus viridis [11]) [%] | herbicidal effect (herbicidal rate), Chenopodium album (Chenopodium album [12]) [%] | herbicidal effect (herbicidal rate), Echinochloa crus-galli (Echinochloa crus-galli [13]) [%] | herbicidal effect (herbicidal rate), southern crabgrass (southern crabgrass [14]) [%] |
| --- | --- | --- | --- | --- | --- | --- | --- | --- | --- | --- | --- | --- | --- | --- | --- | --- |
| CCC(CC)n1oc(=O)c(Cc2ccccc2N(S(=O)(=O)C(F)(F)F)S(=O)(=O)C(F)(F)F)c1C [Compound 1-965] | 100 | 80 | 80 | 100 | 100 | 80 | 50 | 80 | 100 | 100 | 100 | 100 | 90 | 40 | 90 | 90 |
| CCCC(c1ccccc1)n1oc(=O)c(Cc2ccccc2N(S(=O)(=O)C(F)(F)F)S(=O)(=O)C(F)(F)F)c1C (centres unmarked) [Compound 1-1039] | 90 | 90 | 90 | 80 | 100 | 80 | 70 | 80 | 0 | 0 | 90 | 90 | 40 | 40 | 90 | 90 |
| Cc1c(Cc2ccccc2N(C(=O)Cc2ccccc2)S(=O)(=O)C(F)(F)F)c(=O)on1C(C)(C)C [Compound 1-503] | 90 | 90 | 90 | 90 | 90 | 90 | 90 | 90 | 90 | 90 | 90 | 90 | 40 | 40 | 90 | 90 |
| COCC(C)n1oc(=O)c(Cc2ccccc2N(C(=O)C2CCCCC2)S(=O)(=O)C(F)(F)F)c1C (centres unmarked) [Compound 1-434] | 90 | 90 | 90 | 90 | 90 | 90 | 90 | 90 | 90 | 90 | 90 | 90 | 40 | 40 | 90 | 90 |
| Cc1c(Cc2ccccc2NS(=O)(=O)C(F)(F)F)c(=O)on1Cc1ccccc1 [Compound 1-180] | 90 | 90 | 90 | 90 | 70 | 90 | 80 | 90 | 30 | 30 | 80 | 80 | 0 | 40 | 50 | 50 |
| CCCC(C)n1oc(=O)c(Cc2ccccc2N(S(C)(=O)=O)S(=O)(=O)C(F)(F)F)c1C (centres unmarked) [Compound 1-894] | 100 | 100 | 80 | 60 | 90 | 80 | 70 | 70 | 70 | 60 | 90 | 90 | 60 | 60 | 90 | 90 |
| Cc1c(Cc2ccccc2NS(=O)(=O)C(F)(F)F)c(=O)on1C(C)Cc1ccccc1 (centres unmarked) [Compound 1-218] | 100 | 90 | 90 | 90 | 90 | 90 | 40 | 80 | 40 | 40 | 80 | 40 | 60 | 40 | 90 | 40 |
| C=CCOC(=O)N(c1ccccc1Cc1c(C)n(C(C)CC)oc1=O)S(=O)(=O)C(F)(F)F (centres unmarked) [Compound 1-706] | 90 | 90 | 90 | 90 | 90 | 90 | 90 | 90 | 90 | 90 | 90 | 90 | 40 | 40 | 90 | 90 |
